Reference: patent US20070224253A1, “Transdermal Delivery of Meptazinol” (Shire Pharmaceuticals Inc., priority 2005, published 2007)
Converted amounts (≈) assume the structure as drawn. “And” between values parts separate entries of the source, which are not always exact repeats. Equal values may be shown once. “Also recorded” adds a separate entry of the source. Where a name gives a salt, the structure may show the parent alone. Marks after values point to notes of the source that are not given here.

How the values were obtained:
[1] = Yellow discoloration of the meptazinol gel on standing, effect of antioxidants; format: physicochemical; conditions: antioxidant included in meptazinol gel; BHT 0.02-0.05%, ascorbic acid 0.05%
[2] = cited from earlier work
[3] = Transdermal permeation through human skin in Franz cell in vitro apparatus; conditions: for Skin flux / permeation compared with other forms (in words): Franz cell; for Flux: individual Franz cell/donor; for Flux / Mean flux ± sd: vehicle 2% oleic acid: 2% dimethyl isosorbide: 96% propylene glycol; for Mean flux ± sd: mean over donors
[4] = Saturated solubility in potential delivery vehicle (oleic acid/dimethyl isosorbide/propylene glycol); conditions: in 2% oleic acid: 2% dimethyl isosorbide: 96% propylene glycol; for solubility: 2% oleic acid: 2% dimethyl isosorbide: 96% propylene glycol, 32 °C, organic solvent or mixture, thermodynamic from solid, Solubility at 32° C.
Aqueous solubility = format: physicochemical; conditions: aqueous solution
[5] = estimated from visual assessment only
[6] = listed as M HCl (1), hydrochloride
[7] = listed as M HCl (2), hydrochloride

Cc1c(C)c2c(c(C)c1O)CC[C@@](C)(CCC[C@H](C)CCC[C@H](C)CCCC(C)C)O2 [alpha tocopherol]
Effect on yellow discoloration of the gel [1]: did not

CCC1(c2cccc(O)c2)CCCCN(C)C1 (stereo not drawn) [Meptazinol free base, Meptazinol]
Plasma half-life ([2]; in vivo): 1.5 to 2.0 h
Fraction of an oral dose removed by first pass metabolism through the liver ([2]; oral): up to 98.1%
Oral bioavailability, reported mean values ([2]; oral): 4-9%
Skin flux / permeation compared with other forms (in words) [3]: unexpectedly poor flux in comparison to the various salt forms
solubility [4, 5]: ~20 mg/mL (≈ 85.7 mM)
solubility (Aqueous solubility): 0.17 mg/mL (≈ 0.729 mM)

Meptazinol tosylate
Skin flux / permeation compared with other forms (in words) [3]: less effective in improving flux
Flux ([3]; listed as M tosylate): 158.8 ug/cm^2/h and 165.0 ug/cm^2/h and 90.9 ug/cm^2/h and 39.6 ug/cm^2/h and 273.7 ug/cm^2/h and 87.4 ug/cm^2/h
Mean flux ± sd [3]: 135.9 ± 82.5 ug/cm^2/h
Solubility at 32° C. [4, 5]: ˜140** mg/ml

Meptazinol maleate
Flux ([3]; listed as M maleate): 41.3 ug/cm^2/h and 91.3 ug/cm^2/h and 85.3 ug/cm^2/h and 93.9 ug/cm^2/h
Mean flux ± sd [3]: 78.0 ± 24.7 ug/cm^2/h
Solubility at 32° C. ([4]; measured by HPLC): 105* mg/ml

CC1(C)C2CCC1(CS(=O)(=O)O)C(=O)C2.CCC1(c2cccc(O)c2)CCCCN(C)C1 (stereo not drawn) [Meptazinol camsylate]
Skin flux / permeation compared with other forms (in words) [3]: less effective in improving flux
Flux ([3]; listed as M camsylate): 78.1 ug/cm^2/h and 110.9 ug/cm^2/h and 27.3 ug/cm^2/h and 45.1 ug/cm^2/h and 204.2 ug/cm^2/h and 9.5 ug/cm^2/h
Mean flux ± sd [3]: 79.2 ± 71.2 ug/cm^2/h
Solubility at 32° C. [4, 5]: ˜250** mg/ml

Meptazinol trifluoroacetate
Skin flux / permeation compared with other forms (in words) [3]: more rapidly absorbed
Flux ([3]; listed as M TFA): 29.1 ug/cm^2/h and 422.2 ug/cm^2/h and 163.8 ug/cm^2/h and 282.3 ug/cm^2/h
Mean flux ± sd [3]: 224.4 ± 167.6 ug/cm^2/h
Solubility at 32° C. ([4]; measured by HPLC): 170* mg/ml

O=C1O[C@H]([C@@H](O)CO)C(O)=C1O [Ascorbic acid]
Effect on yellow discoloration of the gel [1]: some reduction

Oc1cccc(O)c1O [pyrogallol]
Effect on yellow discoloration of the gel [1]: did not

CCC1(c2cccc(O)c2)CCCCN(C)C1 (stereo not drawn) [Meptazinol hydrochloride, reference compound]
Skin flux / permeation compared with other forms (in words) ([3]; listed as hydrochloride, hydrochloride): more rapidly absorbed
Skin flux / permeation compared with other forms (in words) ([3]; listed as meptazinol hydrochloride, hydrochloride): much better permeant than the maleate; also recorded: higher flux rate than the camsylate; also recorded: substantially greater flux than the free base; also recorded: several times better than the meptazinol free base
Flux [3, 6]: 135.7 ug/cm^2/h and 218.0 ug/cm^2/h and 132.6 ug/cm^2/h and 197.1 ug/cm^2/h and 194.0 ug/cm^2/h and 162.5 ug/cm^2/h
Flux [3, 7]: 66.5 ug/cm^2/h and 222.6 ug/cm^2/h and 213.4 ug/cm^2/h (2×)
Mean flux ± sd [3, 6]: 173.3 ± 35.2 ug/cm^2/h
Mean flux ± sd [3, 7]: 179.0 ± 75.1 ug/cm^2/h
solubility ([4]; measured by HPLC): 78 mg/mL

Cc1cc(C(C)(C)C)c(O)c(C(C)(C)C)c1 [butylated hydroxy toluene]
Effect on yellow discoloration of the gel [1]: completely eliminated

COc1ccc(O)c(C(C)(C)C)c1 [butylated hydroxy anisole]
Effect on yellow discoloration of the gel [1]: did not
